Reference: US20090227617A1, “Esters Of Glucuronide Prodrugs Of Anthracyclines And Method Of Preparation And Use In Tumor-Selective Chemotherapy” (Pharmachemie B.V., priority 2008, published 2009)
Where two headings read alike, the source gives them in different places.

Tests used:
[1] = tested on: OVCAR-3 cells; experiment: In vitro antiproliferative effects in OVCAR-3 cells (crystal violet assay), with or without bovine beta-glucuronidase (GUS); assay type: cell-based, human; settings: for IC50: 3 days incubation; for toxicity compared with doxorubicin: in the presence of GUS
Method: The toxicity of the prodrugs was tested with OVCAR-3 cells. The cells were incubated for 3 days with the different prodrugs DOX-alGA3, DOX-mPEG4-GA3, DOX-mPEG7-GA3, and for comparison also with Doxorubicin, in fetal bovine serum (FBS), in the presence or absence of bovine beta-glucuronidase (GUS).
The concentrations used for the prodrugs ranged from 0.001 μM to 50 μM.
In vitro antiproliferative effects in OVCAR-3 cells after 3 days of incubation with the different (pro)-drugs DOX, DOX-alGA3, DOX-mPEG4-GA3 and DOX-mPEG7-GA3 in the presence or absence of bovine beta-glucuronidase(GUS).
The concentrations used for the prodrugs ranged from 0.001 μM to 50 μM, the GUS enzyme was added to give a final concentration of 10 units/μl. Adjacent to this, cells treated with the prodrugs were incubated without GUS. Incubation was conducted at 37° C. in a humidified, 5% CO2 incubator of three days. Cell growth is measured by crystal violet assay, untreated cells are set at 100%. The IC50 values found in these experiments are depicted in the table beneath.
The human ovarian cancer (OVCAR3) cell line was maintained in DMEM supplemented with 10% heat inactivated FBS and 1% P/S. Inhibition of proliferation of the OVCAR cell line by the doxorubicin prodrugs Dox-allyl, Dox-mGA3, Dox-mPEG4 and Dox-mPEG7 was determined using a crystal violet assay. The assay was preformed in a 96-wells plate. Cells that were harvested by trypsinisation were seeded with 5.000 cells in 100 μl medium per well. The 96-wells plate was incubated overnight at 37° C. in a humidified, 5% CO2 incubator. The different prodrugs were added in concentrations between 0.001 μM to 50 μM. Subsequently, the GUS enzyme was added to give a final concentration of 10 units/μl. This mixture was incubated at 37° C. in a humidified, 5% CO2 incubator for tree days. Subsequently, the cells were stained and fixed with 50 μl 1% crystal violet in 70% ethanol. The cells were washed with water and resolubilized in 100 μl 1% SDS. After this the absorbance was read at 550 nm. The blank extinction values were determined on wells in which no cells were seeded were subtracted from the signals. Inhibition concentrations 50% (IC50) were derived by plotting the inhibition of cell proliferation at different concentrations of the prodrug and non-linear curve fitting.

[2] = tested on: tumor bearing mice; settings: based on 10% weight loss, i.v.; cited from earlier work
[3] = tumor bearing mice, half of the MTD; cited from earlier work
[4] = Hydrolysis of prodrug esters in phosphate buffer pH 7.33, followed by reverse phase TLC; assay type: physicochemical; settings: phosphate buffer pH=7.33, room temperature
Excerpt: hydrolyze faster than alkyl esters like DOX-mGA3 due to the better leaving ability of the ester group of 1. This is caused by the electron-withdrawing properties of the triazol functionality. Indeed in a phosphate buffer with pH=7.33 it took 24 hrs at room temperature before DOX-mGA3 was completely hydrolyzed. The DOX derivatives of 1 with n=7 or 12 and x=1 (DOX-mPEG7GA3 and DOX-mPEG12GA3) were, nevertheless, already hydrolyzed within 4 hrs under these circumstances.
The hydrolysis of the DOX esters were qualitatively followed with reverse phase TLC (RP18). With eluens acetonitril/water: 42/58 in a phosphate buffer (KH2PO4/Na2HPO4) of pH=7.33.
DOX-mGA3 0.29 mg was dissolved in 1 ml of buffer together with some drops of DMSO to keep the DOX-mGA3 dissolved. It took 24 hrs before the starting compound had disappeared.
In the same way the hydrolysis of DOX-triazol esters 1 (n=, 7 and 12, x=1) were followed for 0.35 mg/ml and 0.45 mg/ml buffer. Both esters were completely hydrolyzed within 4 hrs.

[5] = Solubility in water; assay type: physicochemical
Method: For DOX-triazol ester 1 (DOX-mPEG4GA3) about 0.6 mg prodrug dissolve in 1 ml of water whereas for DOX-mPEG7GA3 already 2.5 mg dissolve in 1 ml of water and for DOX-mPEG12GA3 this has reached more than 15 mg in 1 ml of water.

[6] = has to be administered in a vehicle containing Cremophore EL; cited from earlier work
[7] = tested on: carboxyl esterases; settings: mouse plasma; cited from earlier work
[8] = tested on: carboxyl esterases; settings: human plasma; cited from earlier work
[9] = cited from earlier work
[10] = no GUS, read-out: IC50 (M) No GUS
[11] = bovine beta-glucuronidase 10 units/μL, read-out: IC50 (M) with GUS (10 units/μL)

Row | IC50 [1, 10] | IC50 [1, 11] | solubility in water [5] | Compound | toxicity compared with doxorubicin [1] | also measured
1 |  |  |  | COc1cccc2c1C(=O)c1c(O)c3c(c(O)c1C2=O)CC(O)(C(=O)CO)CC3OC1CC(NC(=O)OCc2ccc(NC(=O)OC3OC(C(=O)O)C(O)C(O)C3O)cc2)C(O)C(C)O1 (centres unmarked) [DOX-GA3] |  | maximum tolerated dose (MTD) [2]: approximately 500 mg/kg; concentrations of doxorubicin in plasma versus administration of doxorubicin [3]: significantly lower concentrations of doxorubine in plasma; concentrations of doxorubicin in tumor tissue versus administration of doxorubicin [3]: higher
2 | 9.81e-06 M | 5.84e-08 M |  | C=CCOC(=O)C1OC(OC(=O)Nc2ccc(COC(=O)NC3CC(OC4CC(O)(C(=O)CO)Cc5c(O)c6c(c(O)c54)C(=O)c4c(OC)cccc4C6=O)OC(C)C3O)cc2)C(O)C(O)C1O (centres unmarked) [DOX-alGA3] | comparable toxicity as doxorubicin | 
3 |  |  |  | COC(=O)C1OC(OC(=O)Nc2ccc(COC(=O)NC3CC(OC4CC(O)(C(=O)CO)Cc5c(O)c6c(c(O)c54)C(=O)c4c(OC)cccc4C6=O)OC(C)C3O)cc2)C(O)C(O)C1O (centres unmarked) [DOX-mGA3] |  | time until completely hydrolyzed [4]: 24 h; solubility in water (in words) [5]: completely insoluble in water; solubility in water (in words, background) [6]: very bad solubility in water; half time of conversion to DOX-GA3 [7]: approximately 05 min; half time of conversion to DOX-GA3 [8]: ~2.5 h; pharmacokinetics in mice (in words) [9]: improved pharmacokinetics
4 | 2.21e-05 M | 6.21e-08 M | about 0.6 mg in 1 ml of water | COCCOCCOCCOCCn1cc(COC(=O)C2OC(OC(=O)Nc3ccc(COC(=O)NC4CC(OC5CC(O)(C(=O)CO)Cc6c(O)c7c(c(O)c65)C(=O)c5c(OC)cccc5C7=O)OC(C)C4O)cc3)C(O)C(O)C2O)nn1 (centres unmarked) [DOX-mPEG4-GA3] | comparable toxicity as doxorubicin | 
5 | 8.33e-06 M | 7.74e-08 M | 2.5 mg in 1 ml of water | COCCOCCOCCOCCOCCOCCOCCn1cc(COC(=O)C2OC(OC(=O)Nc3ccc(COC(=O)NC4CC(OC5CC(O)(C(=O)CO)Cc6c(O)c7c(c(O)c65)C(=O)c5c(OC)cccc5C7=O)OC(C)C4O)cc3)C(O)C(O)C2O)nn1 (centres unmarked) [DOX-mPEG7-GA3] | slightly less toxic | 
6 |  |  | more than 15 mg in 1 ml of water | COCCOCCOCCOCCOCCOCCOCCOCCOCCOCCOCCOCCn1cc(COC(=O)C2OC(OC(=O)Nc3ccc(COC(=O)NC4CC(OC5CC(O)(C(=O)CO)Cc6c(O)c7c(c(O)c65)C(=O)c5c(OC)cccc5C7=O)OC(C)C4O)cc3)C(O)C(O)C2O)nn1 (centres unmarked) [DOX-mPEG12GA3] |  | 

Row | Compound | IC50 [1, 10] | IC50 [1, 11] | solubility in water [5] | toxicity compared with doxorubicin [1] | also measured
7 | COc1cccc2c1C(=O)c1c(O)c3c(c(O)c1C2=O)C[C@@](O)(C(=O)CO)C[C@@H]3O[C@H]1C[C@H](N)[C@H](O)[C@H](C)O1 [DOX, doxorubicin, reference compound] | 6.19e-08 M |  |  |  | maximum tolerated dose (MTD) [2]: 8 mg/kg
